In US11813264B2, “PAR1 modulation to alter myelination” (Mayo Foundation for Medical Education and Research, priority 2014, dated 2023):

Assays:
[1] = system: primary oligodendrocytes; test: Klk6-induced process retraction in primary oligodendrocytes (O4+ processes per cell); format: cell-based, mouse
Experimental: (§1) Oligodendrocyte Cultures: Purified cortical oligodendrocyte progenitor cells (OPCs) and differentiated oligodendrocytes were isolated from mixed glial cultures derived from postnatal day 1 mice (McCarthy and de Vellis, J Cell Blot 85:890-902, 1980). Glial cultures were grown in media containing DMEM, 2 mM Glutamax, 1 mM sodium pyruvate, 20 mM HEPES, and 10% heat-inactivated fetal calf serum (Atlanta Biologicals, Lawrenceville, GA). OPCs were isolated from 10 days-in-vitro (DIV) mixed glial cultures by overnight shaking and purified by differential adhesion. OPCs were seeded in defined Neurobasal A media containing 1% N2, 50 U/mL penicillin/streptomycin, 2 mM Glutamax, 1 mM sodium pyruvate, 0.45% glucose, and 50 μM β-mercaptoethanol (Sigma Aldrich, USA). OPCs were seeded at 3×10^4/cm^2 onto tissue culture plastic or 12 mm glass cover slips coated with poly-L-lysine (PLL, 10 μg/mL). After 24 h, cultures were 92-98% immunoreactive (IR) for sulfatide (O4) and by 72 hours at least 80% were also MBP-IR.
(§2) PAR agonist-induced changes in oligodendrocyte morphology: To determine the effects of recombinant Klk6, Klk1, thrombin, or PAR1-AP on oligodendroglia, 3 DIV PAR1^+/+, PAR1^−/−, and PAR2^−/− oligodendrocytes, PAR1^+/+ OPCs immediately post purification, or Oli-neu cells were grown on cover slips in the presence of agonists for 24 h. For ATP toxicity assays, oligodendrocytes were incubated with ATP (50 μM, Sigma Aldrich) in the presence of Klk6 or Klk1. Following each treatment, oligodendrocyte and OPC cultures were immunolabeled for O4 to visualize the cell body and processes. Oli-neu processes were visualized by staining the actin cytoskeleton with Cy3-conjugated Phalloidin.
(§3) To assess the effects of Klk6 and other PAR1 agonists on oligodendrocyte morphology and process stability, 20× digital micrographs were overlaid with a 780 μm^2 grid and ImageJ software 1.45r (National Institutes of Health) used to record cell number and the number of processes crossing horizontal grid lines (Scarisbrick et al., Brain 125:1283-1296, 2002). Data are expressed as the mean number of O4^+ or Phalloidin^+ processes per DAPI^+ cell (±SEM).
(§4) Changes in OPC or oligodendrocyte morphology were quantified from five microscopic fields per cover slip with the mean and SEM calculated across three cover slips per experiment. Each experiment was repeated at least twice using independent cultures. Analysis of oligodendrocyte morphology was performed without knowledge of treatment groups.

[2] = system: oligodendrocyte progenitor cells (OPCs); test: OPC process outgrowth; format: cell-based, mouse; conditions: 24 h
Experimental: as §1, §2, §3, §4

[3] = system: PLP and MBP RNA expression; test: Myelin gene expression (PLP, MBP RNA) in Oli-neu oligodendrocytes, quantitative RT-PCR; format: cell-based, mouse; conditions: 24 hours
Experimental: Oli-neu oligodendrocytes are derived from mouse primary oligodendrocyte cultures retrovirally transduced to constitutively express the t-neu oncogene (Jung et al., Eur J Neurosci 7:1245-1265, 1995). All morphology, signaling, and myelin gene expression studies using Oli-neu oligodendrocytes were performed in media containing DMEM, 1% N2, 2 mM Glutamax, 1 mM sodium pyruvate, 20 mM HEPES buffer, and 50 μM β-mercaptoethanol (Sigma Aldrich. To evaluate PAR and Klk6 gene expression in Oli-neu (Table 2), cells were differentiated by treatment with 1 mM N^6, 2′-O-dibutyryladenosine 3′, 5′-cyclic monophosphate disodium salt (dbcAMP) for 72 hours prior to harvesting for RNA isolation. All cells were maintained at 37° C. in 95% air and 5% CO2. Cell culture reagents were obtained from Life Technologies (Carlsbad, CA) unless otherwise indicated. All cell culture experiments were performed in triplicate and repeated at least twice.
Expression of oligodendrocyte PARs and Klk6-real-time quantitative PCR: Total RNA was isolated from cultured cells using RNA STAT-60 (Tel-Test, Friendswood, TX). Klk6, PAR1, or PAR2 RNA expression was determined in 0.5 μg of RNA with the iScript one-step RT-PCR kit with SYBR® Green and the iCycler iQ5 system (BioRad, Hercules, CA). Transcript copy number was determined using a standard curve prepared by parallel amplification of cDNA clones diluted to known copy number (Christophi et al., J Neurochem 91:1439-1449, 2004). Amplification of the housekeeping gene glyceraldehyde phosphate 3-dehydrogenase (GAPDH) was used to control for loading. The mean and standard error (SEM) of transcript copy number was determined and data expressed as RNA copy number on a logarithmic scale.
Regulation of oligodendrocyte myelin gene expression by PAR1 agonists: Primary murine oligodendrocytes (3 DIV) or Oli-neu oligodendrocytes were seeded at 3.5×10^5 cells/well in six-well tissue culture plates. Cells were then treated with Klk6 (30-300 nM), Klk1 (300 nM), thrombin (270 nM), or PAR1-AP (100 μM) for 24 hours prior to RNA isolation. Expression of myelin-associated genes, PLP, and MBP was examined by real-time quantitative RT-PCR. Expression levels of target genes were normalized to GAPDH and expressed as percent control.

[4] = system: rat primary oligodendrocytes; conditions: 30 or 300 nM, 24 hours; cited from earlier work
[5] = system: primary oligodendrocyte cultures (3 DIV); test: ATP toxicity assay in oligodendrocytes; format: cell-based, mouse
Experimental: as §2, §3
The extent of oligodendrocyte morphological differentiation was determined by scoring O4^+/DAPI^+ oligodendrocyte morphology as simple (only primary processes, no secondary branching), incomplete (one or more primary process without secondary branching), complete (all primary processes with secondary branching), or membrane (complete secondary branching with membrane sheets) (Huang et al., Nat Neurosci 14:45-53, 2011). The mean number of cells in each morphology class was determined across treatments and expressed as percent of total O4^+/DAPI^+ cells.
as §4

[6] = co-application with ATP 50 μM, Klk6 150 nM

Klk6: Recombinant murine kallikrein-related peptidase 6 expressed using a baculovirus system
oligodendrocyte process retraction compared with controls ([1]; PAR1+/+ oligodendrocytes 3 DIV, 30 or 300 nM, 24 h): significant and statistically equivalent oligodendrocyte process retraction | number of O4+ cells ([1]; PAR1+/+, PAR1-/- or PAR2-/- cells): No significant differences | oligodendrocyte process retraction ([1]; PAR1-/- oligodendrocytes, 30 or 300 nM): did not exhibit statistically significant process retraction | oligodendrocyte process retraction ([1]; PAR2-/- oligodendrocytes, 30 or 300 nM): process retraction comparable to that seen in PAR1^+/+ cultures | fewer processes per cell compared with controls ([2]; 150 nM): ~60% | number of OPCs [2]: significantly reduced | OPC process extension / outgrowth ([2]; Klk6 150 nM, thrombin 135 nM, Klk1 150 nM): significantly fewer processes than thrombin treated cultures | MBP RNA [3]: no significant suppression | PLP RNA at 30, 150 and 300 nM [3]: significant and equivalent PLP RNA down regulation | PLP expression ([3]; Klk6 300 nM, thrombin 270 nM, PAR1-AP 100 μM, Klk1 300 nM): significantly diminished | process retraction and oligodendrocyte degeneration [4]: significant process retraction without oligodendrocyte degeneration | ATP-induced oligodendrocyte loss ([5]; co-application with ATP): significant exacerbation | number of processes per oligodendrocyte ([5]; co-application with ATP 50 μM): five-fold reduction | oligodendrocytes with membrane morphology ([5]; co-application with ATP 50 μM): complete loss | oligodendroglia with mature complete morphology ([5]; co-application with ATP 50 μM): complete loss | increase in oligodendrocytes with incomplete morphologies compared with vehicle or ATP alone [5, 6]: greater than 40% | percentage of oligodendrocytes with simple morphology relative to ATP alone [5, 6]: further increasing
